In patent EP0942741B1, “LECTIN COMPOSITIONS AND USES THEREOF” (Alizyme Therapeutics Limited, priority 1996, dated 1997):

Tests used:
[1] = Dose range of PHA pre-dosing against 5-FU damage of the gastrointestinal tract (Example 8); assay type: in vivo, rats; details: pair fed, 150 mg/kg/BW 5-FU, day 9
Procedure: (§1) 300mg of 5-fluorouracil was stirred in 14ml of distilled water. 1M NaOH was added slowly until the 5-FU had dissolved. The solution was made up to a final volume of 20 ml. The final pH of the solution was 8.3. A dose of 150 mg/kg body weight was administered to the animal by intraperitoneal injection. Immediately after the injection, the rats were offered 15 g of the control diet and food was available ad-libitum for the remainder of the experiment.
3 groups of rats (5 rats per group) were fed on the standard diet (Table 1) and gavaged daily with either 200, 100 & 50 mg/kg/day PHA for 3 days. The food intake for each rat was recorded daily. A second set of 3 control groups of rats (5 rats per group) were fed on the standard diet and gavaged daily with 1 ml saline for 3 days. Each animal of the control group was pair fed to an animal in the PHA dosed groups. On the morning of the 4th day, each animal was injected with 150 mg/kg bodyweight 5-FU and then fed the standard diet for 6 days. 2 rats were fed on the standard diet ad libitum for 9 days. On the 9th day, the rats were killed and the animals dissected. After freezing in liquid nitrogen, the wet tissue weights were recorded.

[2] = Protection of rats from 5-FU chemotherapy by oral PHA (Example 7); assay type: in vivo
Procedure: as §1
Four groups, each consisting of 5 rats were maintained on a precise dietary regime for a period of 7 days (Table 11).
Rats (approx […]) pre-dosed with PHA were offered 10 g of the control diet (Table 1) containing 10% lactalbumin. Each animal was given the equivalent of 20 mg PHA in 0.9% saline by gavage. Rats were offered control diet in two feeds at 1000 & 1700 hours. The amount of food given was strictly paired to the amount of diet eaten by the PHA pre-dosed animals. If the animals were immediately post-dosed with PHA, the lectin was administered two hours post 5-FU injection by gavage. Animals neither pre- or post dosed with PHA were administered with 1 ml 0.9% saline by gavage. After 3 days, animals in three of the groups were administered a dose of 150 mg/kg body weight 5-FU. Body weight of each animal was recorded daily and the average body weight calculated.
At the end of the experiment, the animals were sacrificed and then dissected. The dry weights of the major organs were recorded for each animal and the average weights calcurated.
After 7 days, blood was collected from the animals and both the key molecular and cellular components were analysed.

[3] = Paired control 50 mg/kg/day: saline gavage
[4] = Paired control 100 mg/kg/day: saline gavage
[5] = Paired control 200 mg/kg/day: saline gavage
[6] = Treatment 2: LA 3d, inject 5-FU (150 mg/kg i.p.), LA 4d, after 7 days
[7] = Treatment 2: LA 3d, inject 5-FU (150 mg/kg i.p.), LA 4d, blood after 7 days

Compound: O=c1[nH]cc(F)c(=O)[nH]1 [5-FU, 5-fluorouracil]
- Heum wet weight [1, 3]: 722 mg
- Jejunum wet weight [1, 3]: 761 mg
- Heum wet weight [1, 4]: 747 mg
- Jejunum wet weight [1, 4]: 783 mg
- Heum wet weight [1, 5]: 753 mg
- Jejunum wet weight [1, 5]: 848 mg
- Caecum average dry weight [2, 6]: 99 ± 11 mg
- Colon average dry weight [2, 6]: 130 ± 11 mg
- Ileum average dry weight [2, 6]: 94 ± 11 mg
- Jejunum average dry weight [2, 6]: 90 ± 8 mg
- Small intestine average dry weight [2, 6]: 509 ± 55 mg
- Stomach average dry weight [2, 6]: 140 ± 7 mg
- HGB [2, 7]: 12.7 g/100ml
- MCH [2, 7]: 17.3 pg
- MCHC [2, 7]: 34.3 g/100ml
- MCV [2, 7]: 50.4 µm^3
- PLT [2, 7]: 274x10^3 no/mm^3
- WBC [2, 7]: 3x10^3 no/mm^3
- fresh body weight ([2]; Treatment 2: LA 3d, inject 5-FU (150 mg/kg i.p.), LA 4d, column 1 of 8 (day not given)): 102.5 g
- fresh body weight ([2]; Treatment 2: LA 3d, inject 5-FU (150 mg/kg i.p.), LA 4d, column 2 of 8 (day not given)): 99.9 g
- fresh body weight ([2]; Treatment 2: LA 3d, inject 5-FU (150 mg/kg i.p.), LA 4d, column 3 of 8 (day not given)): 98.8 g
- fresh body weight ([2]; Treatment 2: LA 3d, inject 5-FU (150 mg/kg i.p.), LA 4d, column 4 of 8 (day not given)): 101.9 g
- fresh body weight ([2]; Treatment 2: LA 3d, inject 5-FU (150 mg/kg i.p.), LA 4d, column 5 of 8 (day not given)): 108 g
- fresh body weight ([2]; Treatment 2: LA 3d, inject 5-FU (150 mg/kg i.p.), LA 4d, column 6 of 8 (day not given)): 110.2 g
- fresh body weight ([2]; Treatment 2: LA 3d, inject 5-FU (150 mg/kg i.p.), LA 4d, column 7 of 8 (day not given)): 107.9 g
- fresh body weight ([2]; Treatment 2: LA 3d, inject 5-FU (150 mg/kg i.p.), LA 4d, column 8 of 8 (day not given)): 106.2 g
- daily food intake ([2]; Treatment 2: LA 3d, inject 5-FU (150 mg/kg i.p.), LA 4d, day 1 (pair fed, before injection)): 4.8 g
- daily food intake ([2]; Treatment 2: LA 3d, inject 5-FU (150 mg/kg i.p.), LA 4d, day 2 (pair fed, before injection)): 6.22 g
- daily food intake ([2]; Treatment 2: LA 3d, inject 5-FU (150 mg/kg i.p.), LA 4d, day 3 (pair fed, before injection)): 9.22 g
- daily food intake ([2]; Treatment 2: LA 3d, inject 5-FU (150 mg/kg i.p.), LA 4d, day 4): 11.3 g
- daily food intake ([2]; Treatment 2: LA 3d, inject 5-FU (150 mg/kg i.p.), LA 4d, day 5): 10.4 g
- daily food intake ([2]; Treatment 2: LA 3d, inject 5-FU (150 mg/kg i.p.), LA 4d, day 6): 6.8 g
- daily food intake ([2]; Treatment 2: LA 3d, inject 5-FU (150 mg/kg i.p.), LA 4d, day 7): 5.9 g
- reduction of small intestine dry weight ([2]; only lactalbumin in the diet, 5-FU 150 mg/kg): ~50%
